Reference: patent US10669272B2, “Substituted naphthyridinone compounds useful as T cell activators” (BRISTOL-MYERS SQUIBB COMPANY, priority 2018, dated 2020)
Where two headings read alike, the source gives them in different places.

What was measured:
Human venous whole blood = assay: Human whole blood IFN-γ assay; format: cell-based; settings: Homo sapiens, human whole blood, normalized to 3 μM reference compound with anti-CD3 plus anti-CD28 as 100% activation, read-out: INFg Whole Blood Normalized Agonist EC50;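 further: blood from healthy donors exposed to compound for 1 h before stimulation with anti-CD3 and anti-CD28 at 1 µg/mL each, IFN-γ quantified in supernatant by AlphaLISA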
human DGKζ = molecular target: T1, human DGKζ (Homo sapiens, UniProt Q13574); assay: DGKζ LIPGLO assay (extruded liposome substrate), in vitro DGK inhibition; format: biochemical; settings: liposome (LIPGLO) assay; read-out: DGKz LIPGLO IC50
T1 construct: TVMV protease cleavage site (C); Hexa-His (C); made in house; host or cells: Sf9 insect cells (baculovirus, Bac-to-Bac)
T1 sequence (Q13574 with tags, fused parts or gaps isoform Q13574-4): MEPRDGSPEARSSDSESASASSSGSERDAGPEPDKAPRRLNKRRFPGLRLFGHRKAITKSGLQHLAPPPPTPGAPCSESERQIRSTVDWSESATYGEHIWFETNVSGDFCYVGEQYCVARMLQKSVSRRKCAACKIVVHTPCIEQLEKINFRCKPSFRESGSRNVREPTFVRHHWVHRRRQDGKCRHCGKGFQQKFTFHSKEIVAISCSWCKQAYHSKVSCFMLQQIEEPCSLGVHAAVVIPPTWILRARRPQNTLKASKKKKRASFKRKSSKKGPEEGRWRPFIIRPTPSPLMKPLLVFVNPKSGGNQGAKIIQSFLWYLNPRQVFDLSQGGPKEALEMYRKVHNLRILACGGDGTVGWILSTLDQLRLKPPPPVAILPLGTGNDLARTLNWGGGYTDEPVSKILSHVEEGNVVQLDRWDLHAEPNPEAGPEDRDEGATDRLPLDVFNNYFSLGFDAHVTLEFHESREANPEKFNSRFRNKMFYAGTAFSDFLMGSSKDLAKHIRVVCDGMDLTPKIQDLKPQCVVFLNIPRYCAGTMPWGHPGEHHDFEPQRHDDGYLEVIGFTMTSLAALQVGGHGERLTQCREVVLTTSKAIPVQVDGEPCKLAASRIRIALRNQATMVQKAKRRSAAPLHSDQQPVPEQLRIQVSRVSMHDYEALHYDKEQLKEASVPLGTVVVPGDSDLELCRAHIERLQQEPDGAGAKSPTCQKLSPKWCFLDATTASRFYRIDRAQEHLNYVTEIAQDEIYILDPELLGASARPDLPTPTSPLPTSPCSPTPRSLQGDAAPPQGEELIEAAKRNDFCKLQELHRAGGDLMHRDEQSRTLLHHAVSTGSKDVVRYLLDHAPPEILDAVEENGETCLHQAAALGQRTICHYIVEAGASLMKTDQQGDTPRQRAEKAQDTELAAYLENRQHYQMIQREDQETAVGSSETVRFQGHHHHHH

naïve human CD8 T cells = assay: Human CD8 T cells IFN-γ assay; format: cell-based; settings: Homo sapiens, T-cell, 20 h, normalized to 3 μM reference compound with anti-CD3 plus anti-CD28 as 100% activation; read-out: HuCD8 INFG Normalized EC50;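 further: Naïve human CD8 T cells stimulated with plate-bound anti-CD3 and soluble anti-CD28, IFN-γ in supernatant quantified by AlphaLISA and converted to pg/mL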
[1] = system: OT-1 CD8+ T cells with SIINFEKL-loaded MC38 tumor cells; assay: Murine cytotoxic T lymphocyte assay (IFN-γ, OT-1 CTL with MC38 tumor cells); format: cell-based, mouse; settings: Mus musculus, MC-38; read-out: msCTL INFg IC50
Summary of the method: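 OT-1 CD8+ T cells, expanded 5 days with OVA peptide (1 μg/mL) and mIL2, pretreated 1 h with DGK inhibitors, then co-cultured overnight at 37° C at 1:10 with MC38 cells pulsed 3 h with 1 μg/mL SIINFEKL. IFN-γ in 24 h supernatant by AlphaLISA.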

human DGKα = molecular target: T2, human DGKα (Homo sapiens, UniProt P23743); assay: DGKα LIPGLO assay (extruded liposome substrate), in vitro DGK inhibition; format: biochemical; settings: liposome (LIPGLO) assay; read-out: DGKa LIPGLO IC50
T2 construct: TVMV protease cleavage site (C); Hexa-His (C); made in house; host or cells: Sf9 insect cells (baculovirus, Bac-to-Bac)
T2 sequence (P23743 with tags, fused parts or gaps): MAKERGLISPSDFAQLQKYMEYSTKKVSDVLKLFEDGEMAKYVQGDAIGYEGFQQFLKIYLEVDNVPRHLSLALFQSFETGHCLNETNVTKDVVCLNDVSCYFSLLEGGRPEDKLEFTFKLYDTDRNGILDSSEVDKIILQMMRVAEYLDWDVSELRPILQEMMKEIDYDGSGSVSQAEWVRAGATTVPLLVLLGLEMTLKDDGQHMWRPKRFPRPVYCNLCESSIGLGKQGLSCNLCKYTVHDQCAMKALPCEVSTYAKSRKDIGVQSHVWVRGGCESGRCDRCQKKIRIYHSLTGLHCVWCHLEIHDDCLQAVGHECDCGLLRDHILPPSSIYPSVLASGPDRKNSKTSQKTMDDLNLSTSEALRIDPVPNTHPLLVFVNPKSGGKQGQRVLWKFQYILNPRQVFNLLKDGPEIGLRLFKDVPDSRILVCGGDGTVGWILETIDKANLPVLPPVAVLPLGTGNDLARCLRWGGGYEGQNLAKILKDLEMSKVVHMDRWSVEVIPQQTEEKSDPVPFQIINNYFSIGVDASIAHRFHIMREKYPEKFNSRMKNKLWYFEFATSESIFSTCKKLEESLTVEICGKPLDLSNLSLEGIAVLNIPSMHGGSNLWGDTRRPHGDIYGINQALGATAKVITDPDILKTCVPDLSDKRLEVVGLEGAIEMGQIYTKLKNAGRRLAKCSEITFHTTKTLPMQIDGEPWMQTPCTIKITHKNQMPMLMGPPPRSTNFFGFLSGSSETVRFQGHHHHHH

| SMILES | IC50 (human DGKζ) [nM] | IC50 (human DGKα) [nM] | EC50 (Human venous whole blood; 24 h) [nM] | EC50 (naïve human CD8 T cells) [nM] | IC50 [1] [nM] | EC50 (Human venous whole blood) [nM] |
| --- | --- | --- | --- | --- | --- | --- |
| CC(C)[C@@H]1CN(c2cc(=O)n(C)c3ccc(C#N)nc23)CCN1C(c1ccc(F)cc1)c1ccc(F)cc1 [Example 168, (R)-8-(4-(bis(4-fluorophenyl)methyl)-3-isopropylpiperazin-1-yl)-5-methyl-6-oxo-5,6-dihydro-1,5-naphthyridine-2-carbonitrile] | 240000 | 7500 | 10000 | 10000 | 510 | – |
| CC(C)[C@@H]1CN(c2c(C#N)c(=O)n(C)c3ccc(C#N)nc23)CCN1C(c1ccc(F)cc1)c1ccc(F)cc1 [Example 169, (R)-8-(4-(bis(4-fluorophenyl)methyl)-3-isopropylpiperazin-1-yl)-5-methyl-6-oxo-5,6-dihydro-1,5-naphthyridine-2,7-dicarbonitrile] | 77000 | 3200 | 13000 | 440 | 2600 | – |
| CC[C@@H]1CN(c2c(Cl)c(=O)n(C)c3ccc(C#N)nc23)CCN1C(c1ccc(Cl)cc1)c1ccc(Cl)cc1 [Example 177, (R)-8-(4-(bis(4-chlorophenyl)methyl)-3-ethylpiperazin-1-yl)-7-chloro-5-methyl-6-oxo-5,6-dihydro-1,5-naphthyridine-2-carbonitrile] | 2700 | 5500 | 5000 | 130 | 870 | – |
| CC[C@@H]1CN(c2c(C#N)c(=O)n(C)c3ccc(C#N)nc23)CCN1C(c1ccc(Cl)cc1)c1ccc(Cl)cc1 [Example 179, (R)-8-(4-(bis(4-chlorophenyl)methyl)-3-ethylpiperazin-1-yl)-5-methyl-6-oxo-5,6-dihydro-1,5-naphthyridine-2,7-dicarbonitrile] | 880 | 880 | 1000 | 52 | 49 | – |
| CC[C@@H]1CN(c2cc(=O)n(C)c3ccc(C#N)nc23)CCN1C(c1ccc(Cl)cc1)c1ccc(Cl)cc1 [Example 180, (R)-8-(4-(bis(4-chlorophenyl)methyl)-3-ethylpiperazin-1-yl)-5-methyl-6-oxo-5,6-dihydro-1,5-naphthyridine-2-carbonitrile] | 1500 | 4100 | 830 | 70 | 400 | – |
| CC(C)[C@@H]1CN(C(c2ccc(F)cc2)c2ccc(F)cc2)CCN1c1cc(=O)n(C)c2ccc(C#N)nc12 [Example 181, (R)-8-(4-(bis(4-fluorophenyl)methyl)-2-isopropylpiperazin-1-yl)-5-methyl-6-oxo-5,6-dihydro-1,5-naphthyridine-2-carbonitrile] | 240000 | 240000 | 20000 | 10000 | 10000 | – |
| C[C@@H]1CN(c2cc(=O)n(C)c3ccc(C#N)nc23)[C@@H](C)CN1Cc1ccc(F)c(F)c1 [Example 291, 8-[(2S,5R)-4-[(3,4-difluorophenyl)methyl]-2,5-dimethylpiperazin-1-yl]-5-methyl-6-oxo-5,6-dihydro-1,5-naphthyridine-2-carbonitrile] | 1500 | 600 | 1300 | 34 | 470 | – |
| Cc1ccc(C(c2ccc(C)cc2)N2C[C@H](C)N(c3cc(=O)n(C)c4ccc(C#N)nc34)C[C@H]2C)cc1 [Example 301, 8-[(2S,5R)-4-[bis(4-methylphenyl)methyl]-2,5-dimethylpiperazin-1-yl]-5-methyl-6-oxo-5,6-dihydro-1,5-naphthyridine-2-carbonitrile] | 870 | 1500 | – | 9.5 | 72 | 520 |

The remaining compounds from weak to strong by IC50 (human DGKζ), led by results:

| IC50 (human DGKζ) [nM] | IC50 (human DGKα) [nM] | SMILES | EC50 (Human venous whole blood; 24 h) [nM] | EC50 (naïve human CD8 T cells) [nM] | IC50 [1] [nM] | EC50 (Human venous whole blood) [nM] |
| --- | --- | --- | --- | --- | --- | --- |
| 1400 | 1900 | CC[C@@H]1CN(c2cc(=O)n(C)c3ccc(C#N)nc23)CCN1C(c1ccc(F)cc1)c1ccc(F)cc1 [Example 172, (R)-8-(4-(bis(4-fluorophenyl)methyl)-3-ethylpiperazin-1-yl)-5-methyl-6-oxo-5,6-dihydro-1,5-naphthyridine-2-carbonitrile] | 1300 | 36 | 39 | – |
| 1400 | 950 | CC[C@@H]1CN(c2c(C#N)c(=O)n(C)c3ccc(C#N)nc23)CCN1C(c1ccc(F)cc1)c1ccc(F)cc1 [Example 173, (R)-8-(4-(bis(4-fluorophenyl)methyl)-3-ethylpiperazin-1-yl)-5-methyl-6-oxo-5,6-dihydro-1,5-naphthyridine-2,7-dicarbonitrile] | 990 | 25 | 45 | – |
| 430 | 820 | CC[C@@H]1CN(c2c(F)c(=O)n(C)c3ccc(C#N)nc23)CCN1C(c1ccc(F)cc1)c1ccc(F)cc1 [Example 174, (R)-8-(4-(bis(4-fluorophenyl)methyl)-3-ethylpiperazin-1-yl)-7-fluoro-5-methyl-6-oxo-5,6-dihydro-1,5-naphthyridine-2-carbonitrile] | 2200 | 34 | 110 | – |
| 330 | 2400 | CC[C@@H]1CN(c2c(Cl)c(=O)n(C)c3ccc(C#N)nc23)CCN1C(c1ccc(F)cc1)c1ccc(F)cc1 [Example 175, (R)-8-(4-(bis(4-fluorophenyl)methyl)-3-ethylpiperazin-1-yl)-7-chloro-5-methyl-6-oxo-5,6-dihydro-1,5-naphthyridine-2-carbonitrile] | 4300 | 51 | 610 | – |
